Where two headings read alike, the source gives them in different places.
Experiments:
[1] = test system: SV40 immortalized human corneal epithelial cell strain (HCEC)
Procedure: (§1) Cells Used: The corneal cell used herein was SV40 immortalized human corneal epithelial cell strain (HCEC) (Araki-Sasaki et al., IOVS, 1995, 36:614-621) and the conjunctival cell used herein was Chang's human conjunctival epithelial cell strain (CCL-20.2) (ATC CCCL-20.2).
(§2) Experiments: The cells were cultivated to a density of 5×10^4 cells/mL in a growth medium containing 10% serum, inoculated in a 96-well multiplate in an amount of 100 μL/well and cultivated at 37° C. overnight. After the cultivation thereof to a confluent of 30 to 50%, the culture medium was dissolved in a fresh culture medium, followed by the addition of stepwise diluted MS and further diclofenac sodium and the subsequent cultivation at 37° C. for 24 hours. After the cultivation, each well was washed, followed by the addition of a fresh culture medium (100 μL/well) and WST-8 (10 μL/well; Cell Counting Kit-8 available from DOJIN Chemical Co., Ltd.), subsequent cultivation for 1.5 hour and the determination of the absorbance at 450-660 nm to thus calculate the viable cell count.
(§3) Method for Evaluating Toxicity: A test group free of any candidate compound was used as a negative control, the absorbance thereof was assumed to be 100% and a dose-correlation curve was prepared, which was expressed as the cell survival rates as a function of the concentration of each test substance.

[2] = test system: Chang's human conjunctival epithelial cell strain (CCL-20.2); format: cell-based
Procedure: as §1, §2, §3

[3] = test system: corneal epithelial cells; conditions: cited from earlier work; for effect on healing of the damaged area of the epithelium: addition to the monolayer culture
[4] = test system: corneal epithelial cells; conditions: cultivation of the epithelial cells; cited from earlier work
[5] = test system: epithelial cells of lenses; conditions: cited from earlier work
[6] = test system: corneal epithelial cells; conditions: cited from earlier work
[7] = MS 0.01 μM + diclofenac sodium 0.25 mM
[8] = MS 0.01 μM + diclofenac sodium 0.5 mM
[9] = MS 0.01 μM, diclofenac sodium 0 mM
[10] = MS 0.1 μM + diclofenac sodium 0.25 mM
[11] = MS 0.1 μM + diclofenac sodium 0.5 mM
[12] = MS 0.1 μM, diclofenac sodium 0 mM
[13] = MS 1 μM + diclofenac sodium 0.25 mM
[14] = MS 1 μM + diclofenac sodium 0.5 mM
[15] = MS 1 μM, diclofenac sodium 0 mM
[16] = MS 10 μM + diclofenac sodium 0.25 mM
[17] = MS 10 μM + diclofenac sodium 0.5 mM
[18] = MS 10 μM, diclofenac sodium 0 mM
[19] = MS 100 μM + diclofenac sodium 0.25 mM
[20] = MS 100 μM + diclofenac sodium 0.5 mM
[21] = MS 100 μM, diclofenac sodium 0 mM
[22] = added together with diclofenac sodium
[23] = diclofenac sodium 0.25 mM, MS 0 μM, 24 hours
[24] = diclofenac sodium 0.5 mM, MS 0 μM, 24 hours

CCCCC(C)(O)C/C=C/[C@H]1[C@H](O)CC(=O)[C@@H]1CCCCCCC(=O)OC (mixture of isomers) [Misoprostol]
cell survival rate (% of negative control) [1, 7]: 69.9 ± 8.3%
cell survival rate (% of negative control) [1, 8]: 59.2 ± 10.4%
cell survival rate (% of negative control) ([1]; MS 0.01 μM + diclofenac sodium 1 mM): 21.1 ± 9.9%
cell survival rate (% of negative control) [1, 9]: 87.2 ± 13.2%
cell survival rate (% of negative control) [1, 10]: 72.5 ± 12.6%
cell survival rate (% of negative control) [1, 11]: 61.6 ± 13.6%
cell survival rate (% of negative control) ([1]; MS 0.1 μM + diclofenac sodium 1 mM): 22.2 ± 8.3%
cell survival rate (% of negative control) [1, 12]: 98.9 ± 20.4%
cell survival rate (% of negative control) [1, 13]: 73.1 ± 11.7%
cell survival rate (% of negative control) [1, 14]: 68.8 ± 17.1%
cell survival rate (% of negative control) ([1]; MS 1 μM + diclofenac sodium 1 mM): 22.4 ± 8.0%
cell survival rate (% of negative control) [1, 15]: 99.1 ± 22.3%
cell survival rate (% of negative control) [1, 16]: 69.6 ± 10.5%
cell survival rate (% of negative control) [1, 17]: 68.4 ± 13.4%
cell survival rate (% of negative control) ([1]; MS 10 μM + diclofenac sodium 1 mM): 22.6 ± 9.5%
cell survival rate (% of negative control) [1, 18]: 102.4 ± 24.5%
cell survival rate (% of negative control) [1, 19]: 31.7 ± 8.8%
cell survival rate (% of negative control) [1, 20]: 7.2 ± 4.5%
cell survival rate (% of negative control) ([1]; MS 100 μM + diclofenac sodium 1 mM): −1.3 ± 1.3%
cell survival rate (% of negative control) [1, 21]: 99.2 ± 30.7%
cell survival rate (% of negative control) ([2]; MS 0.01 μM + diclofenac sodium 0.125 mM): 91.1 ± 8.1%
cell survival rate (% of negative control) [2, 7]: 42.6 ± 4.9%
cell survival rate (% of negative control) [2, 8]: 33.1 ± 7.4%
cell survival rate (% of negative control) [2, 9]: 93.0 ± 14.8%
cell survival rate (% of negative control) ([2]; MS 0.1 μM + diclofenac sodium 0.125 mM): 97.1 ± 4.5%
cell survival rate (% of negative control) [2, 10]: 45.0 ± 6.7%
cell survival rate (% of negative control) [2, 11]: 34.2 ± 9.3%
cell survival rate (% of negative control) [2, 12]: 98.6 ± 20.2%
cell survival rate (% of negative control) ([2]; MS 1 μM + diclofenac sodium 0.125 mM): 96.4 ± 8.4%
cell survival rate (% of negative control) [2, 13]: 44.0 ± 6.4%
cell survival rate (% of negative control) [2, 14]: 34.4 ± 12.2%
cell survival rate (% of negative control) [2, 15]: 104.0 ± 26.6%
cell survival rate (% of negative control) ([2]; MS 10 μM + diclofenac sodium 0.125 mM): 97.8 ± 9.6%
cell survival rate (% of negative control) [2, 16]: 46.4 ± 7.3%
cell survival rate (% of negative control) [2, 17]: 33.7 ± 9.4%
cell survival rate (% of negative control) [2, 18]: 99.5 ± 22.2%
cell survival rate (% of negative control) ([2]; MS 100 μM + diclofenac sodium 0.125 mM): 55.4 ± 14.7%
cell survival rate (% of negative control) [2, 19]: 31.5 ± 7.4%
cell survival rate (% of negative control) [2, 20]: 28.7 ± 6.4%
cell survival rate (% of negative control) [2, 21]: 86.3 ± 12.0%
concentration at which MS per se had a cytotoxic effect ([2]; human, 24 h): 100 µM

CCCCC(C)(C)[C@H](O)/C=C/[C@H]1[C@H](O)CC(=O)[C@@H]1C/C=C\CCCC(=O)O [16,16-dimethyl prostaglandin E2]
effect on healing of the damaged epithelium ([3]; added alone): does not show any effect on the healing of the damaged corneal epithelium
effect on healing of the damaged epithelium [3, 22]: does not show any effect on the healing of the damaged corneal epithelium

O=C(O)Cc1ccccc1Nc1c(Cl)cccc1Cl [Diclofenac Sodium, diclofenac sodium]
effect on proliferation of the epithelium [4]: do not affect the proliferation of the epithelium
effect on growth of the corneal epithelial cells ([1]; 0.25 mM, 0.5 mM or 1 mM, dose-dependent): inhibits the growth of the corneal epithelial cells
cell survival rate (% of negative control) [1, 23]: 56.9 ± 8.7%
cell survival rate (% of negative control) [1, 24]: 48.2 ± 6.7%
cell survival rate (% of negative control) ([1]; diclofenac sodium 1 mM, MS 0 μM, 24 hours): 17.3 ± 5.4%
effect on proliferation of lens epithelial cells ([5]; 25, 50 and 100 μM added to the culture medium): control of the proliferation of the epithelial cells
cell survival rate (% of negative control) ([2]; diclofenac sodium 0.125 mM, MS 0 μM, 24 hours): 74.0 ± 10.0%
cell survival rate (% of negative control) [2, 23]: 37.8 ± 5.7%
cell survival rate (% of negative control) [2, 24]: 29.3 ± 5.6%
effect on epithelium extension promoted by EGF ([6]; added simultaneously with EGF): inhibit the epithelium extension-promoting effect due to the EGF
effect on extension of the corneal epithelial cells ([6]; agent alone): does not affect the extension of the corneal epithelial cells
effect on healing of the damaged area of the epithelium [3]: would inhibit the damaged epithelium-healing

CCCCC[C@H](O)/C=C/[C@H]1[C@H](O)CC(=O)[C@@H]1C/C=C\CCCC(=O)O [PGE2, prostaglandin E2]
effect on growth of lens epithelial cells ([5]; 1, 10, 50 and 100 μM added to the culture medium): permits the growth of the epithelial cells

CC(C)OC(=O)CCC/C=C\C[C@@H]1[C@@H](CC[C@@H](O)CCc2ccccc2)[C@H](O)C[C@@H]1O [latanoprost]
effect on healing of the damaged epithelium ([3]; added alone): any such effect cannot be obtained
effect on healing of the damaged epithelium [3, 22]: can recover the healing of the damaged epithelium

EGF: epithelium growth factor (EGF)
effect on healing of the damaged area of the epithelium [3]: would promote the healing of the wound on the damaged area

Source: patent US20050124699A1, “Drugs for treating or preventing disorders of corneal and/or conjunctival epithelial cells” (WAKAMOTO PHARMACEUTICAL CO., LTD., priority 2002, published 2005)
